In ChEMBL document CHEMBL1177794, “Broad spectrum alkynyl inhibitors of T315I Bcr-Abl” (Bioorg Med Chem Lett, 2010):

Columns and labels:
Assay type in all cases: functional, cell-based
BaF3 [1] = test: Antiproliferative activity against mouse BAF3 cells expressing wild type Bcr-Abl
BaF3 [2] = test: Antiproliferative activity against mouse BAF3 cells expressing Bcr-Abl T315I mutant
BaF3 [3] = test: Antiproliferative activity against mouse BAF3 cells

| Structure (SMILES) | EC50 (BaF3 [1]) [nM] | EC50 (BaF3 [2]) [nM] | EC50 (BaF3 [3]) [nM] |
| --- | --- | --- | --- |
| CCN1CCN(Cc2ccc(NC(=O)c3ccc(C)c(C#Cc4coc5ccccc45)c3)cc2C(F)(F)F)CC1 | 240 | 8370 | 6760 |
| CCN1CCN(Cc2ccc(NC(=O)c3ccc(C)c(C#Cc4cncnc4)c3)cc2C(F)(F)F)CC1 | < 1 | 990 | 2190 |
| CCN1CCN(Cc2ccc(NC(=O)c3ccc(C)c(C#Cc4ccc(NC(C)=O)nc4)c3)cc2C(F)(F)F)CC1 | < 1 | 10 | 2050 |
| CCN1CCN(Cc2ccc(NC(=O)c3cccc(C#Cc4cnc5[nH]ccc5c4)c3)cc2C(F)(F)F)CC1 | 11 | 220 | > 10000 |
| CCN1CCN(Cc2ccc(NC(=O)c3ccc(C)c(C#Cc4cnc5[nH]cnc5c4)c3)cc2C(F)(F)F)CC1 | < 1 | 14 | 60 |
| Cc1cn(-c2cc(NC(=O)c3ccc(C)c(C#Cc4cnc5[nH]ccc5c4)c3)cc(C(F)(F)F)c2)cn1 | 37 | 470 | > 10000 |
| CCN1CCN(Cc2ccc(NC(=O)c3ccc(C)c(C#Cc4cnccn4)c3)cc2C(F)(F)F)CC1 | 6 | 3030 | 2490 |
| CCN1CCN(Cc2ccc(NC(=O)c3ccc(C)c(C#Cc4ccc(C(=O)NC)nc4)c3)cc2C(F)(F)F)CC1 | 41 | 2580 | 3980 |
| CCN1CCN(Cc2ccc(NC(=O)c3ccc(C)c(C#Cc4cnc5[nH]c(C)cc5c4)c3)cc2C(F)(F)F)CC1 | 26 | 560 | 1000 |
| Cc1cn(-c2cc(NC(=O)c3cccc(C#Cc4cnc5[nH]ccc5c4)c3)cc(C(F)(F)F)c2)cn1 | 15 | 300 | 2830 |
| CCN1CCN(Cc2ccc(NC(=O)c3ccc(C)c(C#Cc4cnc5nccnc5c4)c3)cc2C(F)(F)F)CC1 | 37 | 5520 | 3320 |
| CCN1CCN(Cc2ccc(NC(=O)c3ccc(C)c(C#Cc4ccc(NC(=O)C5CC5)nc4)c3)cc2C(F)(F)F)CC1 | < 1 | 13 | 1800 |
| CCN1CCN(Cc2ccc(C(=O)Nc3ccc(C)c(C#Cc4cnc5[nH]ccc5c4)c3)cc2C(F)(F)F)CC1 | 70 | 2630 | 7860 |
| CCN1CCN(Cc2ccc(NC(=O)c3ccc(C)c(C#Cc4cnc(N)cn4)c3)cc2C(F)(F)F)CC1 | < 1 | 165 | 860 |
